Data from patent publication US20070053062A1, “Optical part and projection type display apparatus using same” (priority 2005, published 2007).

Legend:
mildews [1] = assay: Mildew proofness of the lenses left to stand in thermo-hygrostat after dipping in hot water; assay type: cell-based; design: key to Growing of mildew: ∘: Growing of mildews was not recognized by visual inspection and inspection with a 5x magnifier.; Growing of mildews was not recognized by visual inspection, but recognized by inspection with a 5x magnifier.; xx: Growing of mildews was recognized by both the visual inspection and the inspection with a 5x magnifier; conditions: lens dipped in hot water at 40° C. for 1 hour; for Growing of mildews (in words): then 1 week at 40° C. and 95% RH; for Growing of mildew: then 1 week in thermo-hygrostat of 40° C. and 95% RH, visual inspection and 5× magnifier
Protocol: Then, the lenses having the anti-reflecting membrane containing the mildew proofing agent were dipped in hot water at 40° C. for 1 hour and thereafter were left to stand for 1 week in a thermo-hygrostat of 40° C. and 95% RH. After lapse of 1 week, it was examined by visual inspection and inspection with a 5× magnifier whether mildews grew or not.
In compounds 13, 16, 18 and 20, the elemental proportion of nitrogen was 6% by weight or more.

mildews [2] = assay: Mildew proofness of lenses with anti-reflecting membrane containing mildew proofing agent, left to stand in thermo-hygrostat; assay type: cell-based; design: key: ∘: Growing of mildews was not recognized by visual inspection and inspection with a 5x magnifier.; Growing of mildews was not recognized by visual inspection, but recognized by inspection with a 5x magnifier.; xx: Growing of mildews was recognized by both the visual inspection and the inspection with a 5x magnifier; conditions: acrylic resin lens, anti-reflecting membrane containing the agent; 1 week in thermo-hygrostat of 40° C. and 95% RH; visual inspection and 5× magnifier
Protocol: Anti-reflecting paints containing the mildew proofing agentwere prepared by mixing a silica sol solution as a binder (containing 2-propanol as a main solvent and 10% by weight of an alkoxysilane polymer) (2 parts by weight), a 5 wt % dispersion of silicon dioxide having an average length of major axis of about 60 nm as inorganic oxide particles (35 parts by weight), 2-propanol (100 parts by weight), and a 2 wt % 2-propanol solution of the mildew proofing agent (2 parts by weight). Here, 2-propanol was used as the solvent because most of the mildew proofing agents only partially dissolve in water.
Next, the same lens of acrylic resin as used in Example 1 as one of the optical parts of the present invention was cleaned in the same manner as in Example 1, and thereafter the lens was coated with the anti-reflecting paint containing the mildew proofing agent in place of the anti-reflecting paint used in Example 1, followed by heating the coat. In this case, the anti-reflecting paint was also coated on the back surface of the lens as in Example 1. Thus, a lens having an anti-reflecting membrane containing the mildew proofing agent was produced.
Next, in order to confirm whether these lenses had mildew proofness or not, these lenses were left to stand for 1 week in a thermo-hygrostat of 40° C. and 95% RH. For comparison, the lens having the anti-reflecting membrane containing no mildew proofing agent was also left to stand together. After 1 week, it was confirmed by visual inspection and inspection with a 5× magnifier whether mildews grew or not.

SMILES	Growing of mildews (in words) (mildews [1])	Growing of mildew (mildews [1])	Growing of mildew (mildews [2])
CCCCCCCC[n+]1ccccc1 [Compound 13]	Growing of a few mildews was seen	x	∘
CCCCCCCCCC[n+]1ccccc1 [Compound 14]	–	∘	∘
CCCC[n+]1ccccc1 [Compound 16]	Growing of a few mildews was seen	x	∘
CCCCCC[n+]1ccccc1 [Compound 17]	–	∘	∘
C[n+]1ccccc1 [Compound 18]	Growing of a few mildews was seen	x	∘
CC(C)(C)OC(=O)Nc1ccc(Cl)cc1 [Compound 27]	–	–	∘
CC(C)(C)OC(=O)Nc1ccc(I)cc1 [Compound 28]	–	–	∘
O=C(Nc1ccc(Cl)cc1)Oc1ccccc1 [Compound 29]	–	–	∘
